# Measurements as given in ChEMBL document CHEMBL4725367, “Novel anticancer Hsp90 inhibitor disubstituted pyrazolyl 2-aminopyrimidine compound 7t induces cell cycle arrest and apoptosis via mitochondrial pathway in MCF-7 cells” (Bioorg Med Chem Lett, 2020).
# Assays:
# [1] = biological target: T1, Heat shock protein HSP90 (Homo sapiens) (UniProt P07900+P08238); assay: Inhibition of HSP90 in human MCF7 cells assessed as induction of apoptosis by measuring late apototic cells at 10 uM measured after 24 hrs by annexinV-FITC/propidium iodide staining based flow cytometry (reference value: 7.91 %); type: cell-based; parameters: scale not given: the % may be the effect or the level left
# [2] = biological target: T1, Heat shock protein HSP90 (Homo sapiens); assay: Inhibition of HSP90 in human MCF7 cells assessed as induction of apoptosis by measuring live cells at 2.5 uM measured after 24 hrs by annexinV-FITC/propidium iodide staining based flow cytometry (reference value: 90.77 %); type: cell-based; parameters: scale not given: the % may be the effect or the level left
# [3] = biological target: T1, Heat shock protein HSP90 (Homo sapiens); assay: Inhibition of HSP90 in human MCF7 cells assessed as induction of mitochondrial membrane potential loss by measuring cell population with mitochondrial membrane potential collapse at 10 uM after 24 hrs by JC1 staining-based flow cytometry analysis (reference value: 6.53 %); parameters: scale not given: the % may be the effect or the level left
# [4] = biological target: T1, Heat shock protein HSP90 (Homo sapiens); assay: Inhibition of HSP90 in human MCF7 cells assessed as induction of apoptosis by measuring live cells at 5 uM measured after 24 hrs by annexinV-FITC/propidium iodide staining based flow cytometry (reference value: 90.77 %); type: cell-based; parameters: scale not given: the % may be the effect or the level left
# [5] = biological target: T1, Heat shock protein HSP90 (Homo sapiens); assay: Inhibition of HSP90 in human MCF7 cells assessed as cell cycle arrest by measuring accumulation at S phase at 10 uM measured after 24 hrs by RNaseA/propidium iodide staining based flow cytometric analysis (reference value: 7.08 %); parameters: scale not given: the % may be the effect or the level left
# [6] = biological target: T1, Heat shock protein HSP90 (Homo sapiens); assay: Inhibition of HSP90 in human MCF7 cells assessed as cell cycle arrest by measuring accumulation at G0/G1 phase at 2.5 uM measured after 24 hrs by RNaseA/propidium iodide staining based flow cytometric analysis (reference value: 39.10 %); parameters: scale not given: the % may be the effect or the level left
# [7] = biological target: T1, Heat shock protein HSP90 (Homo sapiens); assay: Inhibition of HSP90 in human MCF7 cells assessed as cell cycle arrest by measuring accumulation at G2/M phase at 2.5 uM measured after 24 hrs by RNaseA/propidium iodide staining based flow cytometric analysis (reference value: 25.08 %); parameters: scale not given: the % may be the effect or the level left
# [8] = biological target: T1, Heat shock protein HSP90 (Homo sapiens); assay: Inhibition of HSP90 in human MCF7 cells assessed as induction of apoptosis by measuring live cells at 10 uM measured after 24 hrs by annexinV-FITC/propidium iodide staining based flow cytometry (reference value: 90.77 %); type: cell-based; parameters: scale not given: the % may be the effect or the level left
# [9] = biological target: T1, Heat shock protein HSP90 (Homo sapiens); assay: Inhibition of HSP90 in human MCF7 cells assessed as induction of mitochondrial membrane potential loss by measuring cell population with intact mitochondrial membrane potential at 10 uM after 24 hrs by JC1 staining-based flow cytometry analysis (reference value: 92.39 %); parameters: scale not given: the % may be the effect or the level left
# [10] = biological target: T1, Heat shock protein HSP90 (Homo sapiens); assay: Inhibition of HSP90 in human MCF7 cells assessed as induction of mitochondrial membrane potential loss by measuring cell population with mitochondrial membrane potential collapse at 2.5 uM after 24 hrs by JC1 staining-based flow cytometry analysis (reference value: 6.53 %); parameters: scale not given: the % may be the effect or the level left
# [11] = biological target: T1, Heat shock protein HSP90 (Homo sapiens); assay: Inhibition of HSP90 in human MCF7 cells assessed as cell cycle arrest by measuring accumulation at Sub-G1 phase at 2.5 uM measured after 24 hrs by RNaseA/propidium iodide staining based flow cytometric analysis (reference value: 3.75 %); parameters: scale not given: the % may be the effect or the level left
# [12] = biological target: T1, Heat shock protein HSP90 (Homo sapiens); assay: Inhibition of HSP90 in human MCF7 cells assessed as induction of mitochondrial membrane potential loss by measuring cell population with intact mitochondrial membrane potential at 2.5 uM after 24 hrs by JC1 staining-based flow cytometry analysis (reference value: 92.39 %); parameters: scale not given: the % may be the effect or the level left
# [13] = biological target: T1, Heat shock protein HSP90 (Homo sapiens); assay: Inhibition of HSP90 in human MCF7 cells assessed as increase in ROS generation by measuring fluorescence intensity at 2.5 to 10 uM after 24 hrs by DCFDA staining based flow cytometry; type: cell-based; conditions: dose microM 2.5-10, time 24.0 hrs
# [14] = biological target: T1, Heat shock protein HSP90 (Homo sapiens); assay: Inhibition of HSP90 in human MCF7 cells assessed as induction of apoptosis by measuring late apototic cells at 5 uM measured after 24 hrs by annexinV-FITC/propidium iodide staining based flow cytometry (reference value: 7.91 %); type: cell-based; parameters: scale not given: the % may be the effect or the level left
# [15] = biological target: T1, Heat shock protein HSP90 (Homo sapiens); assay: Inhibition of HSP90 in human MCF7 cells assessed as induction of nuclear morphological changes by measuring nuclear fragmentation at 2.5 to 10 uM by DAPI staining based fluorescence microscopy analysis; type: cell-based; conditions: dose microM 2.5-10
# [16] = biological target: T1, Heat shock protein HSP90 (Homo sapiens); assay: Inhibition of HSP90 in human MCF7 cells assessed as induction of apoptosis by measuring late apototic cells at 2.5 uM measured after 24 hrs by annexinV-FITC/propidium iodide staining based flow cytometry (reference value: 7.91 %); type: cell-based; parameters: scale not given: the % may be the effect or the level left
# [17] = biological target: T1, Heat shock protein HSP90 (Homo sapiens); assay: Inhibition of HSP90 in human MCF7 cells assessed as induction of apoptosis by measuring early apototic cells at 5 uM measured after 24 hrs by annexinV-FITC/propidium iodide staining based flow cytometry (reference value: 1.31 %); type: cell-based; parameters: scale not given: the % may be the effect or the level left
# [18] = biological target: T1, Heat shock protein HSP90 (Homo sapiens); assay: Inhibition of HSP90 in human MCF7 cells assessed as induction of apoptosis by measuring total apoptotic and dead cell population at 4 uM measured after 24 hrs by annexinV-FITC/propidium iodide staining based flow cytometry (reference value: 9.23 %); parameters: scale not given: the % may be the effect or the level left
# [19] = biological target: T1, Heat shock protein HSP90 (Homo sapiens); assay: Inhibition of HSP90 in human MCF7 cells assessed as induction of mitochondrial membrane potential loss by measuring cell population with mitochondrial membrane potential collapse at 5 uM after 24 hrs by JC1 staining-based flow cytometry analysis (reference value: 6.53 %); parameters: scale not given: the % may be the effect or the level left
# [20] = biological target: T1, Heat shock protein HSP90 (Homo sapiens); assay: Inhibition of HSP90 in human MCF7 cells assessed as cell cycle arrest by measuring accumulation at S phase at 5 uM measured after 24 hrs by RNaseA/propidium iodide staining based flow cytometric analysis (reference value: 7.08 %); parameters: scale not given: the % may be the effect or the level left
# [21] = biological target: T1, Heat shock protein HSP90 (Homo sapiens); assay: Inhibition of HSP90 in human MCF7 cells assessed as induction of apoptosis by measuring necrotic cells at 2.5 uM measured after 24 hrs by annexinV-FITC/propidium iodide staining based flow cytometry (reference value: 0.01 %); type: cell-based; parameters: scale not given: the % may be the effect or the level left
# [22] = biological target: T1, Heat shock protein HSP90 (Homo sapiens); assay: Inhibition of HSP90 in human MCF7 cells assessed as induction of apoptosis by measuring total apoptotic and dead cell population at 0.5 to 4 uM measured after 24 hrs by annexinV-FITC/propidium iodide staining based flow cytometry; conditions: dose microM 0.5-4, time 24.0 hrs
# [23] = biological target: T1, Heat shock protein HSP90 (Homo sapiens); assay: Inhibition of HSP90 in human MCF7 cells assessed as cell cycle arrest by measuring accumulation at G0/G1 phase at 5 uM measured after 24 hrs by RNaseA/propidium iodide staining based flow cytometric analysis (reference value: 39.10 %); parameters: scale not given: the % may be the effect or the level left
# [24] = biological target: T1, Heat shock protein HSP90 (Homo sapiens); assay: Inhibition of HSP90 in human MCF7 cells assessed as induction of morphological changes by measuring membrane blebbing at 2.5 to 10 uM by acridine orange/ethidium bromide staining based fluorescence microscopy analysis; type: cell-based; conditions: dose microM 2.5-10
# [25] = biological target: T1, Heat shock protein HSP90 (Homo sapiens); assay: Inhibition of HSP90 in human MCF7 cells assessed as cell cycle arrest by measuring accumulation at G2/M phase at 10 uM measured after 24 hrs by RNaseA/propidium iodide staining based flow cytometric analysis (reference value: 25.08 %); parameters: scale not given: the % may be the effect or the level left
# [26] = biological target: T1, Heat shock protein HSP90 (Homo sapiens); assay: Inhibition of HSP90 in human MCF7 cells assessed as induction of morphological changes by measuring chromatin condensation and fragmentation in nucleus at 2.5 to 10 uM by acridine orange/ethidium bromide staining based fluorescence microscopy analysis; type: cell-based; conditions: dose microM 2.5-10
# [27] = biological target: T1, Heat shock protein HSP90 (Homo sapiens); assay: Inhibition of HSP90 in human MCF7 cells assessed as induction of apoptosis by measuring necrotic cells at 5 uM measured after 24 hrs by annexinV-FITC/propidium iodide staining based flow cytometry (reference value: 0.01 %); type: cell-based; parameters: scale not given: the % may be the effect or the level left
structure (smiles),measurement,setting,value
Nc1nc(-c2ccc(Br)cc2)cc(-c2cn(-c3ccc(Cl)cc3)nc2-c2ccc([N+](=O)[O-])cc2)n1,Activity,[1],30.5%
same,Activity,[2],87.9%
same,Activity,[3],53%
same,Activity,[4],77.4%
same,Activity,[5],4.13%
same,Activity,[6],35.2%
same,Activity,[7],27.2%
same,Activity,[8],62.3%
same,Activity,[9],46%
same,Activity,[10],12.7%
same,Activity,[11],6.27%
same,Activity,[12],85.4%
same,inhibition,[13],Dose-dependent effect
same,Activity,[14],18.6%
same,inhibition,[15],Dose-dependent effect
same,Activity,[16],10.1%
same,Activity,[17],3.8%
same,Activity,[18],34.7%
same,Activity,[19],21.8%
same,Activity,[20],5.15%
same,Activity,[21],0.07%
same,inhibition,[22],Dose-dependent effect
same,Activity,[23],28%
same,inhibition,[24],Dose-dependent effect
same,Activity,[25],20.1%
same,inhibition,[26],Dose-dependent effect
same,Activity,[27],0.17%
